Data from ChEMBL document CHEMBL5338798, “An Analysis of Successful Hit-to-Clinical Candidate Pairs” (J Med Chem, 2023).

Molecular target: T1, Tyrosine-protein phosphatase non-receptor type 11 (Homo sapiens, UniProt Q06124)
T1 sequence (Q06124 whole entry): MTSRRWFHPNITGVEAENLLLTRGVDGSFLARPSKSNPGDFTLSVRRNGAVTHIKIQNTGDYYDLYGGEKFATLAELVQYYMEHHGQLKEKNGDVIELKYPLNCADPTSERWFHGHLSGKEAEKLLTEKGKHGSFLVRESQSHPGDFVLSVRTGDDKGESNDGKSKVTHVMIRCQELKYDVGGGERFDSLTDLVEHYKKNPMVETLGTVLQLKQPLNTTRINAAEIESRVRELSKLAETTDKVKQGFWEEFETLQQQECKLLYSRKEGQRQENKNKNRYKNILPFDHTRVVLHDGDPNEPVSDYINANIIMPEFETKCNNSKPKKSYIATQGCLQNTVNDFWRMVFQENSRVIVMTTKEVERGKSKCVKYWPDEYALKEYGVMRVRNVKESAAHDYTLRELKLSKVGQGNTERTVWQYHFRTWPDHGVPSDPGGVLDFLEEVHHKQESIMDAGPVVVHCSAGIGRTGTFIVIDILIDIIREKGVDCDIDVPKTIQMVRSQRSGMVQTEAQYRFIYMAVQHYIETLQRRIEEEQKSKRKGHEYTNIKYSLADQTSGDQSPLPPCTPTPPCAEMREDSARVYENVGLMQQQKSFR
Experiment: Inhibition of SHP2 (unknown origin)

IC50: 30 nM
Compound: CC1(N)CCN(c2cnc(Sc3cccc(Cl)c3Cl)c(N)n2)CC1
